Legend:
Plasmodium falciparum = assay: Antiplasmodial activity against erythrocyte stage of Plasmodium falciparum W2 assessed as growth inhibition after 48 hrs by flow cytometry; assay type: functional, organism-based; conditions: W2, 48 h
[1] = Cytotoxicity against human HuH7 cells assessed as cell viability by alamarblue assay; assay type: cell-based; conditions: huh-7
Plasmodium berghei [2] = assay: Ratio of primaquine IC50 to compound IC50 against liver stage of Plasmodium berghei sporozoites expressing firefly luciferase infected in human Huh7 cells; assay type: functional, Huh-7
Plasmodium berghei [3] = assay: Antiplasmodial activity against liver stage of Plasmodium berghei sporozoites expressing firefly luciferase infected in human Huh7 cells assessed as inhibition of parasite development treated 1 hr prior to infection followed by compound replenisment at 24 hrs post-infection measured 48 hrs after infection by bioluminescence analysis; assay type: functional, organism-based; conditions: Huh-7, Liver

| Compound | IC50 (Plasmodium berghei [3]) | IC50 (Plasmodium falciparum) | Activity [1] | Ratio IC50 (Plasmodium berghei [2]) |
| --- | --- | --- | --- | --- |
| COc1ccc(/C=C/C(=O)NCCCC(C)Nc2cc(OC)cc3cccnc23)cc1 (centres undefined) |  | ≥ 10000 nM | Non-toxic | >2 |
| COc1cc(NC(C)CCCNC(=O)/C=C/c2ccc(C)cc2)c2ncccc2c1 (centres undefined) | 2130 nM | ≥ 10000 nM | Non-toxic | >2 |
| COc1cc(NC(C)CCCNC(=O)/C=C/c2ccc(F)cc2)c2ncccc2c1 (centres undefined) | 2330 nM | ≥ 10000 nM | Non-toxic | >2 |
| COc1cc(NC(C)CCCNC(=O)/C=C/c2ccc(Cl)cc2)c2ncccc2c1 (centres undefined) | 2390 nM | ≥ 10000 nM | Non-toxic | >2 |
| COc1cc(NC(C)CCCNC(=O)/C=C/c2ccc(Br)cc2)c2ncccc2c1 (centres undefined) | 1380 nM | ≥ 10000 nM | Non-toxic | >2 |
| COc1cc(NC(C)CCCNC(=O)/C=C/c2ccc([N+](=O)[O-])cc2)c2ncccc2c1 (centres undefined) | 2240 nM | ≥ 10000 nM | Non-toxic | >2 |
| C[C@@H]1CC[C@H]2[C@@H](C)C(=O)O[C@@H]3O[C@@]4(C)CC[C@@H]1[C@]32OO4 [ARTEMISININ] |  | 5.64 nM |  |  |

More lines, in order of falling IC50 (Plasmodium berghei [3]), values ahead:

| IC50 (Plasmodium berghei [3]) | Compound | IC50 (Plasmodium falciparum) | Activity [1] | Ratio IC50 (Plasmodium berghei [2]) |
| --- | --- | --- | --- | --- |
| 2360 nM | COc1cc(NC(C)CCCNC(=O)/C=C/c2ccccc2[N+](=O)[O-])c2ncccc2c1 (centres undefined) | ≥ 10000 nM | Non-toxic | >2 |
| 2120 nM | COc1cc(NC(C)CCCNC(=O)/C=C/c2cccc([N+](=O)[O-])c2)c2ncccc2c1 (centres undefined) | ≥ 10000 nM | Non-toxic | >2 |
| 2010 nM | COc1cc(NC(C)CCCNC(=O)/C=C/c2ccccc2)c2ncccc2c1 (centres undefined) | ≥ 10000 nM | Non-toxic | >2 |
| 1630 nM | COc1cc(NC(C)CCCNC(=O)/C=C/c2cccc(F)c2)c2ncccc2c1 (centres undefined) | ≥ 10000 nM | Non-toxic | >2 |
| 1540 nM | COc1cc(NC(C)CCCNC(=O)/C=C/c2ccc(C(C)C)cc2)c2ncccc2c1 (centres undefined) | 4840 nM | Non-toxic | >2 |

From ChEMBL document CHEMBL3217417, “PRIMACINS, N-cinnamoyl-primaquine conjugates, with improved liver-stage antimalarial activity” (Medchemcomm, 2012)
